We go through 2 compounds from patent US7781191B2, “Treatment of biomass to obtain a target chemical” (E. I. du Pont de Nemours and Company, priority 2005, dated 2010).

The test system of the data set is Z. mobilis strain 8b. As to conditions: fermentation medium pH 6.0, 30° C., 150 rpm; supplemented with 6 g/L acetamide or 7.2 g/L acetic acid vs unsupplemented control; FIG. 1.

From the text: Fermentation medium was composed of 10 g/L yeast extract, 2 g/L KH2PO4, 70 g/L glucose, 40 g/L xylose and 0.1 M MES buffer.

Regarding `CC(N)=O` [acetamide], the “final density / cell yield (as measured by dry cell mass) of Z. mobilis” value was “no influence” and the “growth rate of Z. mobilis” value was “no influence”.

For the compound `CC(=O)O` [acetic acid], the “growth rate of Z. mobilis” value was “reduced growth rate”.
